Laboratory results from publication PMC6030506 (Biochemistry, 2018).

Key:
HDAC8 = molecular target: T1, HDAC8 (Homo sapiens, UniProt Q9BY41); test: ITC; type: binding; settings: […] HEPES pH […] KCl, […] glycerol, […] TCEP
T1 sequence (Q9BY41 1-377): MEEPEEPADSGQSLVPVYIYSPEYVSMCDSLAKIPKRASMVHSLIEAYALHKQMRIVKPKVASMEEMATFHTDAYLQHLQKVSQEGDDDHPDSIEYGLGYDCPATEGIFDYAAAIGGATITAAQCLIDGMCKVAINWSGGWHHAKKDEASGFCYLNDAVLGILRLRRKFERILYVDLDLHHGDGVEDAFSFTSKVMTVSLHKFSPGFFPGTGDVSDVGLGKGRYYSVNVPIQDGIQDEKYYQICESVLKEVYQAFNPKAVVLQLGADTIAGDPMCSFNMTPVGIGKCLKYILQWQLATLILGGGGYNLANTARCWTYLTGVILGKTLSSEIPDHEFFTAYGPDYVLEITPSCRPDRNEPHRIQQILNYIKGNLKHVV

[1] = molecular target: T2, HDAC6 (catalytic domain 2, CD2) (Danio rerio, UniProt F8W4B7); test: ITC; type: binding; settings: […] HEPES pH […] KCl, […] glycerol, […] TCEP
T2 sequence (F8W4B7 440-798): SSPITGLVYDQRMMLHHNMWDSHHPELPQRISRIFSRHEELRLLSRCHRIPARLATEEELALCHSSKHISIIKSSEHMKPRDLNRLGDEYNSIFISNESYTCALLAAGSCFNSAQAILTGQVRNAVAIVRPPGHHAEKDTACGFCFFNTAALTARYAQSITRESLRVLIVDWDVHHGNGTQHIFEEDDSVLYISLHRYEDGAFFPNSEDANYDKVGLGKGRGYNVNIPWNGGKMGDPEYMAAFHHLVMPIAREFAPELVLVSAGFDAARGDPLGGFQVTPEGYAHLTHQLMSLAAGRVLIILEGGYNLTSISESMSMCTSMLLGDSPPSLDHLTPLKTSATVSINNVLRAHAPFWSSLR

Structure (SMILES)	Kd (HDAC8)	Kd [1]
O=C(NO)c1ccc(CN(CCO)C(=O)Cc2ccccc2)cc1 [HPB]	we additionally studied the binding of the phenylhydroxamate derivative HPB	we additionally studied the binding of the phenylhydroxamate derivative HPB
O=C(CCCCCCNC(=O)c1cnc(N(c2ccccc2)c2ccccc2)nc1)NO [Ricolinostat]		the aliphatic hydroxamate inhibitor Ricolinostat
O=C(CCCCCCC(=O)Nc1ccccc1)NO [SAHA]		the aliphatic hydroxamate inhibitor suberoylanilide hydroxamic acid (SAHA)
